Values joined by “and” are separate entries in the source; they are usually repeats but may differ in a detail not shown here. Equal values may be shown once.
Tested on: 156681-154-R-J1 tumor spheroid viability
Test: Anticancer human tumor 156681-154-R-J1 patient-derived melanoma cell line growth inhibition
Conditions: spheroids with HUVEC and MSC; for viability, T/C: stronger effect = lower value
Description: Multicellular complex tumor spheroid response to DNA repair inhibitors in combination with DNA-damaging drugs
This study explores the anticancer activities of DNA-damaging drugs and inhibitors of DNA damage repair, both as single agents and in combinations. Complex tumor spheroids comprised of malignant cells, endothelial cells and mesenchymal stem cells served as an in vitro model for human solid tumors. This model system incorporates physiologically relevant features and patient-derived or established malignant cell lines with clinically relevant genetic alterations from many tumor types. Twenty-six patient-derived or established malignant cell lines were evaluated representing sarcoma, melanoma, small cell lung cancer (SCLC), non-small cell lung cancer (NSCLC), as well as bladder, ovarian and pancreatic cancers. The concentration ranges selected for each drug and investigational agent were based upon clinically achievable concentrations if the clinical Cmax of the agent was known.
Compounds. The drugs and compounds olaparib (NSC753686), talazoparib (NSC767125), berzosertib (NSC777718), elimusertib (NSC800525), nedisertib (NSC802822), VX-984 (NSC792969), AZD-1390 (NSC803789), temozolomide (NSC362856), topotecan (NSC609699), trabectedin (NSC813783), staurosporine (NSC755774), and gemcitabine (NSC613327) were obtained from the National Cancer Institute (NCI) Developmental Therapeutics Program Chemical Repository. The FDA-approved anticancer drug set is available from the Developmental Therapeutics Program at https://dtp.cancer.gov/organization/dscb/obtaining/available_plates.htm. […] The stock solutions were prepared in dimethyl sulfoxide (DMSO, Sigma-Aldrich, St. Louis, MO, cat. D2650) at 400-fold the tested concentration and stored at -70 degrees C. Prior to their use, the stock solutions were diluted in fresh medium and the final DMSO concentration in the assay was 0.25% (v/v). All drugs and investigational agents were tested over a range starting from a high concentration at or near the clinical Cmax and decreasing in half-log increments. If the clinical Cmax for an agent had not been determined, the highest concentration tested was 10 microM.
Cell Lines. The patient-derived cancer cell (PDC) lines: 156681-154-R-J1-PDC, 283228-195-R-J1-PDC, 287954-098-R-J1-PDC, 292921-168-R-J2-PDC, 349418-098-R-PDC, 425362-245-T-J1-PDC, 556581-035-R-J1-PDC, and BL0293-F563-PDC were received from the NCI Patient-Derived Models Repository (PDMR, https://pdmr.cancer.gov). The established cell lines HS-SY-2 (RRID:CVCL_8719), MPNST, and SYO-1 (RRID:CVCL_7146) were obtained from the Sloan Kettering Institute. The alveolar soft parts sarcoma cell line ASPS-1 (RRID:CVCL_S738) was established at the NCI and grown from internal seed stocks. The following established cell lines were purchased from the American Type Culture Collection (ATCC, Manassas, VA): G-401 (ATCC, cat. CRL-1441, RRID:CVCL_0270), SW982 (ATCC, cat. HTB-93, RRID:CVCL_1734), VA-ES-BJ (ATCC, cat. CRL-2138, RRID:CVCL_1785), NCI-H719 (ATCC, cat. CRL-5837, RRID:CVCL_1582), NCI-H196 (ATCC, cat. CRL-5823, RRID:CVCL_1509), NCI-H841 (ATCC, cat. CRL-5845, RRID:CVCL_1595), NCI-H1618 (ATCC, cat. CRL-5879, RRID:CVCL_1480), NCI-H1876 (ATCC, cat. CRL-5902, RRID:CVCL_1503), DMS 114 (ATCC, cat. CRL-2066; RRID:CVCL_1174), NCI-H211 (ATCC, cat. CRL-5824; RRID:CVCL_1529), and SW 1271 (ATCC, cat. CRL-2177, RRID:CVCL_1716). The small cell lung cancer cell line COR-L88 was purchased from Sigma-Aldrich (cat. 92031917-1VL, RRID:CVCL_1141). The non-small cell lung cancer cell lines NCI-H226 (RRID:CVCL_1544) and NCI-H322M (RRID:CVCL_1557) were established at the NCI and grown from internal seed stocks. Pooled donor human umbilical vein endothelial cells (HUVEC, Lonza, cat. CC-2519) and human mesenchymal stem cells (hMSC, Lonza, cat. PT-2501) were purchased from Lonza (Walkersville, MD).
Cell Culture. All cells were maintained in an incubator at 37 degrees C and 5% CO2 with 95% humidity. […]
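Note: spheroids exposed to compounds for 7 days before readout.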
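Throughout, for viability, T/C: percent of vehicle control viability where 100% = DMSO-treated spheroids.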

**Q.** For `Cc1cc(C)c(CNC(=O)c2cc(-c3ccc(CN4CCOCC4)cc3)cc3c2cnn3C2CCCC2)c(=O)[nH]1` + COc1cc2c(cc1O)CCNC21CSC2c3c(OC(C)=O)c(C)c4c(c3C(COC1=O)N1C(O)C3Cc5cc(C)c(OC)c(O)c5C(C21)N3C)OCO4, which IC50 (curve of first compound, second compound 30 pM) is on record?
**A.** Its IC50 is > 10000 nM.

**Q.** And the IC50 (curve of first compound, second compound 94.9 pM)?
**A.** Its IC50 is > 10000 nM.

**Q.** And the IC50 (curve of first compound, second compound 0.0003 µM)?
**A.** Its IC50 is > 10000 nM.

**Q.** And the IC50 (curve of first compound, second compound 0.000949 µM)?
**A.** Its IC50 is < 31.6 nM.

**Q.** And the IC50 (curve of first compound, second compound 0.003 µM)?
**A.** The IC50 was < 31.6 nM.

**Q.** What about the viability, T/C (second compound 30 pM, first compound 0.0316 µM) of the same molecule?
**A.** Its viability, T/C is 103%.

**Q.** What about the viability, T/C (second compound 30 pM, first compound 0.1 µM) of the same molecule?
**A.** Its viability, T/C is 106%.

**Q.** What about the viability, T/C (second compound 30 pM, first compound 0.316 µM) of the same molecule?
**A.** The viability, T/C was 87.3%.

**Q.** And the viability, T/C (second compound 30 pM, first compound 1 µM)?
**A.** Its viability, T/C is 78.7%.

**Q.** And the viability, T/C (second compound 30 pM, first compound 3.16 µM)?
**A.** Its viability, T/C is 81.5%.

**Q.** And the viability, T/C (second compound 30 pM, first compound 10 µM)?
**A.** Its viability, T/C is 87.8%.

**Q.** And the viability, T/C (second compound 94.9 pM, first compound 0.0316 µM)?
**A.** Its viability, T/C is 100%.

**Q.** What about the viability, T/C (second compound 94.9 pM, first compound 0.1 µM) of the same molecule?
**A.** The viability, T/C was 93.8%.

**Q.** And the viability, T/C (second compound 94.9 pM, first compound 0.316 µM)?
**A.** The viability, T/C was 89%.

**Q.** And the viability, T/C (second compound 94.9 pM, first compound 1 µM)?
**A.** Its viability, T/C is 77.6%.

**Q.** And the viability, T/C (second compound 94.9 pM, first compound 3.16 µM)?
**A.** Its viability, T/C is 86.4%.

**Q.** What about the viability, T/C (second compound 94.9 pM, first compound 10 µM) of the same molecule?
**A.** The viability, T/C was 78.8%.

**Q.** And the viability, T/C (second compound 0.0003 µM, first compound 0.0316 µM)?
**A.** Its viability, T/C is 76.2%.

**Q.** What about the viability, T/C (second compound 0.0003 µM, first compound 0.1 µM) of the same molecule?
**A.** The viability, T/C was 74.5%.

**Q.** What about the viability, T/C (second compound 0.0003 µM, first compound 0.316 µM) of the same molecule?
**A.** The viability, T/C was 76.2%.

**Q.** What about the viability, T/C (second compound 0.0003 µM, first compound 1 µM) of the same molecule?
**A.** Its viability, T/C is 79.6%.

**Q.** What about the viability, T/C (second compound 0.0003 µM, first compound 3.16 µM) of the same molecule?
**A.** Its viability, T/C is 72.7%.

**Q.** And the viability, T/C (second compound 0.0003 µM, first compound 10 µM)?
**A.** The viability, T/C was 66.4%.

**Q.** And the viability, T/C (second compound 0.000949 µM, first compound 0.0316 µM)?
**A.** The viability, T/C was 4.8%.

**Q.** What about the viability, T/C (second compound 0.000949 µM, first compound 0.1 µM) of the same molecule?
**A.** The viability, T/C was 6.16%.

**Q.** And the viability, T/C (second compound 0.000949 µM, first compound 0.316 µM)?
**A.** The viability, T/C was 5.29%.

**Q.** And the viability, T/C (second compound 0.000949 µM, first compound 1 µM)?
**A.** Its viability, T/C is 6.16%.

**Q.** What about the viability, T/C (second compound 0.000949 µM, first compound 3.16 µM) of the same molecule?
**A.** The viability, T/C was 3.09%.

**Q.** And the viability, T/C (second compound 0.000949 µM, first compound 10 µM)?
**A.** Its viability, T/C is 1.36%.

**Q.** What about the viability, T/C (second compound 0.003 µM, first compound 0.0316 µM) of the same molecule?
**A.** The viability, T/C was 0.35%.

**Q.** And the viability, T/C (second compound 0.003 µM, first compound 0.1 µM)?
**A.** Its viability, T/C is 0.31%.

**Q.** What about the viability, T/C (second compound 0.003 µM, first compound 0.316 µM) of the same molecule?
**A.** The viability, T/C was 0.24%.

**Q.** And the viability, T/C (second compound 0.003 µM, first compound 1 µM)?
**A.** Its viability, T/C is 0.18%.

**Q.** What about the viability, T/C (second compound 0.003 µM, first compound 3.16 µM) of the same molecule?
**A.** Its viability, T/C is 0.16%.

**Q.** And the viability, T/C (second compound 0.003 µM, first compound 10 µM)?
**A.** The viability, T/C was 0.28%.

**Q.** For `CC1COCCN1c1cc(-c2ccnn2C)c2ccnc(-c3ccn[nH]3)c2n1` (configuration not stated), which viability, T/C (compound 0.0316 µM) is on record?
**A.** The viability, T/C was 83.8% and 68.1% and 84.5%.

**Q.** And the viability, T/C (compound 0.1 µM)?
**A.** Its viability, T/C is 77.6% and 66% and 75.6%.

**Q.** What about the viability, T/C (compound 0.316 µM) of the same molecule?
**A.** Its viability, T/C is 37.2% and 34.3% and 47.2%.

**Q.** What about the viability, T/C (compound 1 µM) of the same molecule?
**A.** The viability, T/C was 30.1% and 21.7% and 29.9%.

**Q.** And the viability, T/C (compound 3.16 µM)?
**A.** The viability, T/C was 31.1% and 24.6% and 29.9%.

**Q.** What about the viability, T/C (compound 10 µM) of the same molecule?
**A.** Its viability, T/C is 25.2% and 20.8% and 22.6%.

**Q.** And the IC50 (curve of compound)?
**A.** The IC50 was 220 nM and 179 nM and 286 nM.

Source: PubChem BioAssay AID1845195 (Molecular Pharmacology Branch, DTP, NCI, 2023)
